Reference: patent US20140162285A1, “Methods of Modulating Vesicular Trafficking” (The General Hospital Corporation, priority 2009, published 2014)
Blank lines part the entries; values can stand above or below the molecule they belong to. Peptide text beside a SMILES is read from it. * marks the point of attachment. Biotin = O=C1N[C@H]2[C@H](CS[C@H]2CCCCC(=O)*)N1

Assays:
PB-domain of ARNO = biological target: T1, PB-domain of ARNO (Homo sapiens, UniProt Q99418); test: a2N-derived peptide pull-down with GST-PB domain; type: binding
T1 construct: v) 379-400aa, polybasic (PB) domain; made in house; host or cells: E. coli BL21(DE3)
Description: FIGS. 5A-C are a set of three images of Western blots showing the identification of interaction motif of a2N that is involved in specific binding with the Sec7 domain of ARNO. 5A, The catalytic Sec7 domain of ARNO interacts with two a2N-derived peptides, a2N-01 and a2N-03, in pull-down experiments. The peptide pull-down assay was performed with six a2N-derived interaction peptides immobilized on streptavidin-beads and incubated with purified recombinant GST-only or GST-Sec7 domain. Interacting complexes were eluted and analyzed by Western blotting using monoclonal anti-GST antibodies as described below. The loading controls for GST-only (lane 1) or GST-Sec7 (lane 2) are shown. […] The peptide pull-down assay was performed with peptides a2N-01 and a2N-03 immobilized on streptavidin-beads and incubated with purified recombinant GST-PH domain (5B) or GST-PB domain (5C). Interacting complexes were eluted and analyzed by Western blotting using monoclonal anti-GST antibodies. […]
These a2N-derived peptides were immobilized by an N-terminal biotin-tag, which ensured the same efficiency and equivalent binding to streptavidin-agarose beads. […] After washing beads four times in ice-cold binding buffer, the interacting complexes were eluted by boiling in SDS-PAGE sample buffer for 10 min at 95° C., resolved by SDS-PAGE and analyzed by Western blotting using monoclonal anti-GST antibody. […]

ARNO PH-domain = biological target: T2, ARNO PH-domain (Homo sapiens, UniProt Q99418); test: GST pull-down of in vitro translated a2N with ARNO PH-domain; type: binding; conditions: Western blot anti-a2N
T2 construct: iv) 253-378aa, plekstrin-homology (PH) domain; made in house; host or cells: E. coli BL21(DE3)
T2 sequence (Q99418 253-378): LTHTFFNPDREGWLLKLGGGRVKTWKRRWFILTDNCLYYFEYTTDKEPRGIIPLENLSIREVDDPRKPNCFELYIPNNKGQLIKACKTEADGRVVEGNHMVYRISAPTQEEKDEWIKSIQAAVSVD
Description: The purified recombinant GST-ARNO(wt) and GST-tagged ARNO domain constructs ([…]) were incubated with 10 μl of in vitro translated 6His-a2N recombinant protein at 4° C. for 2 hours in 500 μl of binding buffer (10 mM HEPES, 1 mM EDTA, 1 mM DTT, 100 mM NaCl, 10% glycerol, 0.1% NP-40) with gentle rotation. Then the interacting recombinant proteins were immobilized on glutathione beads by incubation with 50 μl of 50% glutathione Sepharose 4B slurry for 2 hours at 4° C. The beads were collected by centrifugation and washed 5 times with 500 μl ice-cold binding buffer. Interacting proteins were eluted by boiling in SDS-PAGE sample buffer for 10 min at 95° C., resolved by SDS-PAGE and analyzed by Western blotting using polyclonal anti-a2N antibodies. […]
To examine the ability of these well-defined and functionally distinct domains of ARNO to interact with a2N1-402, full-length ARNO(wt) and its four domains were cloned separately for bacterial expression of recombinant proteins (FIG. 3). […] Interacting proteins were detected by western blot analysis with a2-specific antibodies as described above.

T1 sequence (Q99418 379-400 limits assumed): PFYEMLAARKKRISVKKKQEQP

interaction with PB-domain of ARNO (PB-domain of ARNO): does not interact
Molecule: CSCC[C@H](NC(=O)CCCC[C@@H]1SC[C@@H]2NC(=O)N[C@@H]21)C(=O)NCC(=O)N[C@@H](CO)C(=O)N[C@@H](CC(C)C)C(=O)N[C@@H](Cc1ccccc1)C(=O)N[C@@H](CCCNC(=N)N)C(=O)N[C@@H](CO)C(=O)N[C@@H](CCC(=O)O)C(=O)N[C@@H](CO)C(=O)N[C@@H](CCSC)C(=O)N[C@@H](CS)C(=O)N[C@@H](CC(C)C)C(=O)N[C@@H](C)C(=O)N[C@@H](CCC(N)=O)C(=O)N[C@@H](CC(C)C)C(=O)N[C@@H](Cc1ccccc1)C(=O)N[C@@H](CC(C)C)C(=O)N[C@@H](CS)C(=O)O [a2N-01, Bio-MGSLFRSE SMCLAQLFL-Cys] (Biotin-MGSLFRSESMCLAQLFLC-OH; N-terminus and C-terminus assumed)

interaction of a2N with ARNO PH-domain (ARNO PH-domain): weakly
B1: a2N: recombinant N-terminal cytosolic tail, amino acid residues 1-402 of mouse V-ATPase a2-subunit (protein)
chain: MGSLFRSESMCLAQLFLQSGTAYECLSALGEKGLVQFRDLNQNVSSFQRKFVGEVKRCEELERILVYLVQEITRADIPLPEGEASPPAPPLKHVLEMQEQLQKLEVELREVTKNKEKLRKNLLELVEYTHMLRVTKTFLKRNVEFEPTYEEFPALENDSLLDYSCMQRLGAKLGFVSGLIQQGRVEAFERMLWRACKGYTIVTYAELDECLEDPETGEVIKWYVFLISFWGEQIGHKVKKICDCYHCHIYPYPNTAEERREIQEGLNTRIQDLYTVLHKTEDYLRQVLCKAAESVCSRVVQVRKMKAIYHMLNMCSFDVTNKCLIAEVWCPEVDLPGLRRALEEGSRESGATIPSFMNTIPTKETPPTLIRTNKFTEGFQNIVDAYGVGSYREVNPALFTII
modifications: left off: small tags and cut ends
notes: recombinant N-terminal cytosolic tail, amino acid residues 1-402 of mouse V-ATPase a2-subunit
